Experimental data taken from patent US9034381B2, “Process to control particle size” (Alphapharm Pty Ltd, priority 2005, dated 2015).
Several values for one entry are separate records, joined by “and”; a condition that tells them apart may be missing. Equal entries are not always repeated.

Assay: Particle size measurement of milled material (Malvern Mastersizer S laser diffraction)
Format: physicochemical
[1] = Example 1 (comparative), feedstock, individual samples
[2] = Example 1 (comparative), feedstock
[3] = Example 1 (comparative), micronised in a single process, composite
[4] = Example 1 (comparative), micronised in a single process, individual samples
[5] = Example 2 (comparative), feedstock, individual samples
[6] = Example 2 (comparative), feedstock
[7] = Example 2 (comparative), micronised in a single process, composite
[8] = Example 2 (comparative), micronised in a single process, individual samples
[9] = Example 3 (comparative), feedstock
[10] = Example 3 (comparative), micronised in a single process, composite
[11] = Example 3 (comparative), micronised in a single process, individual samples
[12] = Example 4, micronised first pass
[13] = Example 4, micronised second pass

SMILES: NC(=O)N1c2ccccc2CC(=O)c2ccccc21 [Oxcarbazepine]
- D[v, 0.5] [1]: 47.04 μm and 47.77 μm
- D[v, 0.9] [1]: 98.61 μm and 101.96 μm
- D[v, 0.5] mean [2]: 47.41 μm
- D[v, 0.9] mean [2]: 100.29 μm
- D[v, 0.5] composite (average) [3]: 15.27 μm
- D[v, 0.9] composite (average) [3]: 53.30 μm
- D[v, 0.5] [4]: 15.02 μm and 15.18 μm and 15.16 μm and 25.41 μm and 10.36 μm
- D[v, 0.9] [4]: 52.08 μm and 51.71 μm and 51.94 μm and 67.97 μm and 44.13 μm
- D[v, 0.5] [5]: 47.04 μm and 47.77 μm
- D[v, 0.9] [5]: 98.61 μm and 101.96 μm
- D[v, 0.5] mean [6]: 47.41 μm
- D[v, 0.9] mean [6]: 100.29 μm
- D[v, 0.5] composite (average) [7]: 5.95 μm
- D[v, 0.9] composite (average) [7]: 30.47 μm
- D[v, 0.5] [8]: 3.84 μm and 6.09 μm and 2.15 μm and 4.91 μm
- D[v, 0.9] [8]: 19.56 μm and 31.90 μm and 11.56 μm and 27.25 μm
- D[v, 0.5] [9]: 73.33 μm
- D[v, 0.9] [9]: 323.50 μm
- D[v, 0.5] composite [10]: 13.79 μm
- D[v, 0.9] composite (average) [10]: 33.14 μm
- D[v, 0.5] [11]: 7.50 μm and 19.51 μm and 15.09 μm and 15.64 μm
- D[v, 0.9] [11]: 16.47 μm and 44.34 μm and 34.47 μm and 35.78 μm
- D[v, 0.5] mean (Example 4, initial feedstock): 65.06 μm
- D[v, 0.9] mean (Example 4, initial feedstock): 177.81 μm
- D[v, 0.5] mean [12]: 33.89 μm
- D[v, 0.9] mean [12]: 78.22 μm
- D[v, 0.5] mean [13]: 16.30 μm
- D[v, 0.9] mean [13]: 37.22 μm
